Results from ChEMBL document CHEMBL4651402, “Screening of ~5500 FDA-approved drugs and clinical candidates for anti-SARS-CoV-2 activity” (2021).

Tested on: SARS-CoV-2
Assay: microbe, parasite or virus in culture
Conditions: Severe acute respiratory syndrome coronavirus 2, Vero C1008, 48 h

Row | Compound | IC50 | IC50 (read-out: pIC50 (converted))
1 | CCCc1nc2c(C)cc(-c3nc4ccccc4n3C)cc2n1Cc1ccc(-c2ccccc2C(=O)O)cc1 | > 20 µM | > 20 µM
2 | Nc1nc(=O)n([C@H]2C[C@H](O)[C@@H](CO)O2)cc1F | > 20 µM | > 20 µM
3 | CN(C)C1CC(c2ccccc2)c2ccccc21 (centres undefined) | > 20 µM | > 20 µM
4 | C[C@@H](NCCCc1cccc(C(F)(F)F)c1)c1cccc2ccccc12 | > 20 µM | > 20 µM
5 | CC(=O)Oc1cc2c(s1)CCN(C(C(=O)C1CC1)c1ccccc1F)C2 (centres undefined) | > 20 µM | > 20 µM
6 | CC1=N[C@H](C(=O)O)[C@@H](O)CN1 | > 20 µM | > 20 µM
7 | CN(C)CCCSC(=N)N | > 20 µM | > 20 µM
8 | NCCOC[C@H](N)C(=O)O | > 20 µM | > 20 µM
9 | CNS(=O)(=O)Cc1ccc2[nH]cc(CCN(C)C)c2c1 | > 20 µM | > 20 µM
10 | CC1(C)C2CC[C@@]1(C)C(=O)C2 | > 20 µM | > 20 µM
11 | CN1[C@@H]2CC[C@H]1CC(O)C2 (some centres undefined) | > 20 µM | > 20 µM
12 | COc1c2ccoc2nc2c(OC)c(OC[C@@H](O)C(C)(C)O)ccc12 | > 20 µM | > 20 µM
13 | CC(C)Nc1ccc(Nc2ccccc2)cc1 | > 20 µM | > 20 µM
14 | CC(=O)O[C@@]12CO[C@@H]1C[C@H](O)[C@@]1(C)C(=O)[C@H](O)C3=C(C)[C@@H](OC(=O)[C@H](O)[C@@H](NC(=O)OC(C)(C)C)c4ccccc4)C[C@](O)([C@@H](OC(=O)c4ccccc4)[C@H]21)C3(C)C | > 20 µM | > 20 µM
15 | O=C1OCCN1/N=C\c1ccc([N+](=O)[O-])o1 | > 20 µM | > 20 µM
16 | COc1ccc2c(c1OC)C(=O)O[C@H]2[C@@H]1c2c(cc3c(c2OC)OCO3)CCN1C | > 20 µM | > 20 µM
17 | CCCC(=O)Nc1ncnc2c1ncn2[C@@H]1O[C@@H]2OP(=O)(O)OC[C@H]2[C@H]1OC(=O)CCC | > 20 µM | > 20 µM
18 | O=c1[nH]c(=O)c2ccccc2o1 | > 20 µM | > 20 µM
19 | Clc1cnccn1 | > 20 µM | > 20 µM
20 | C=C(C)C(=O)OCCCCCCCCCCCC | > 20 µM | > 20 µM
21 | Cc1cccc(Cl)c1NC(=O)CCN1CCC[C@H]2CCC[C@@H]21 | > 20 µM | > 20 µM
22 | CC(C)[C@H](N/C(=N\S(=O)(=O)c1ccc(Cl)cc1)N1C[C@H](c2ccccc2)C(c2ccc(Cl)cc2)=N1)C(N)=O | > 20 µM | > 20 µM
23 | CN1C2CCCC1CC(=O)C2 | > 20 µM | > 20 µM
24 | CCN(CC)C(=O)C1(c2ccccc2)CC1CN (centres undefined) | > 20 µM | > 20 µM
25 | CC[C@@H]1C2C[C@H](O)CC[C@]2(C)[C@H]2CC[C@]3(C)[C@@H]([C@H](C)CCC(=O)O)CC[C@H]3[C@@H]2[C@@H]1O (some centres undefined) | > 20 µM | > 20 µM
26 | COc1ccccc1N1CCN(CCCNc2cc(=O)n(C)c(=O)n2C)CC1 | > 20 µM | > 20 µM

Row | Compound | IC50 | IC50 (read-out: pIC50 (converted))
27 | O=C(O)c1cc(NC(=O)[C@H](Cc2ccccc2F)NC(=O)c2cc3[nH]cnc3cc2C(=O)NCC2CCCCCC2)cc(C(=O)O)c1 | > 20 µM | > 20 µM
28 | C[C@@H]1CC[C@]2(C(=O)O)CC[C@]3(C)C(=CCC4[C@@]5(C)CC[C@H](O)C(C)(C)C5CC[C@]43C)C2[C@H]1C (some centres undefined) | > 20 µM | > 20 µM
29 | O=[N+]([O-])c1ccc(NN=C(c2ccc(O)cc2)c2ccc(O)cc2)c([N+](=O)[O-])c1 | > 20 µM | > 20 µM
30 | CNCC(O)c1cccc(O)c1 (centres undefined) | > 20 µM | > 20 µM
31 | CC(=O)NC(CCC(N)=O)C(=O)O (centres undefined) | > 20 µM | > 20 µM
32 | O=P(O)(O)OCC(O)CO (centres undefined) | > 20 µM | > 20 µM
33 | OC[C@H]1O[C@H](O)[C@@H](O)[C@@H](O)[C@@H]1O | > 20 µM | > 20 µM
34 | COc1ccc(C(=O)N2CCCC2=O)cc1 | > 20 µM | > 20 µM
35 | COc1ccc([C@@H]2CNC(=O)[C@@H](Cc3cccc(C)c3)C2)cc1OC1CCCC1 | > 20 µM | > 20 µM
36 | CC(C)(C)C(=O)Oc1ccc2c(c1)O[C@@H](c1ccc(OCCN3CCCCC3)cc1)C1=C2COc2cc(OC(=O)C(C)(C)C)ccc21 | > 20 µM | > 20 µM
37 | O=C(/N=C(/Nc1cc(F)cc(Cl)c1)Nc1cc(C(F)(F)F)[nH]n1)c1cccc(Cl)c1 | > 20 µM | > 20 µM
38 | Cc1nc(N(C)C(=O)Cc2ccc(-c3ccccn3)cc2)sc1S(N)(=O)=O | > 20 µM | > 20 µM
39 | Cc1ccnc(N)c1 | > 20 µM | > 20 µM
40 | COc1ccc(-n2[nH]c(=O)c3[nH]c4cc(Cl)ccc4c(=O)c3c2=O)c(C)c1 | > 20 µM | > 20 µM
41 | CC1NCCc2cc(O)c(O)cc21 (centres undefined) | > 20 µM | > 20 µM
42 | C=C1[C@@H](O)C23C[C@@H]1[C@@H](O)C[C@H]2[C@@]12[C@@H]4[C@H]3C[C@@H]1[C@@](C)(CC[C@@H]2O)CN4CC | > 20 µM | > 20 µM
43 | COc1ccc2c(c1)C[C@@H](C)N(CCc1ccc(N)cc1)CC2 | > 20 µM | > 20 µM
44 | Cc1nc(N2CCOC[C@@H]2C)nc(-n2ccnc2)c1[N+](=O)[O-] | > 20 µM | > 20 µM
45 | O=C(O)CC[C@H]1CC[C@](c2cc(F)ccc2F)(S(=O)(=O)c2ccc(Cl)cc2)CC1 | > 20 µM | > 20 µM
46 | CO[C@H]1/C=C\C=C(\C)C(=O)NC2=CC(=O)C(NCCN(C)C)=C(C[C@@H](C)C[C@H](OC)[C@H](O)[C@@H](C)/C=C(/C)[C@@H]1OC(N)=O)C2=O | > 20 µM | > 20 µM
47 | CCn1c(=O)n(CCCN2CCN(c3cccc(Cl)c3)CC2)n[13c]1[13CH2][13CH3] | > 20 µM | > 20 µM
48 | C=C(C)[C@@H]1CC[C@]2(C(=O)O)CC[C@]3(C)[C@H](CCC4[C@@]5(C)CC[C@@H](O)C(C)(C)C5CC[C@]43C)C12 (some centres undefined) | > 20 µM | > 20 µM
49 | Cc1cc(C)c2c3ccccc3n(Cc3ccc([C@@H](C(=O)N[C@@H](CO)c4ccccc4)C4CCCC4)cc3)c2n1 | > 20 µM | > 20 µM
50 | CS(=O)(=O)c1ccc([C@@H](O)[C@H](CF)NC(=O)C(Cl)Cl)cc1 | > 20 µM | > 20 µM
51 | CC(=O)O[C@H]1CC[C@@]2(C)C(CC[C@]3(C)C2C(=O)C=C2[C@H]4C[C@@](C)(C(=O)O)CC[C@]4(C)CC[C@]23C)C1(C)C (some centres undefined) | > 20 µM | > 20 µM
52 | CC(C)C(=O)Nc1ccc([N+](=O)O)c(C(F)(F)F)c1 | > 20 µM | > 20 µM

Row | Compound | IC50 | IC50 (read-out: pIC50 (converted))
53 | CC(=O)O[C@H]1CC[C@@]2(C)[C@H](CC[C@@H]3[C@@H]2CC[C@]2(C)C(=O)CC[C@@H]32)C1 | > 20 µM | > 20 µM
54 | CC1CC[C@@]2(OC1)OC1CC3C4CC[C@@H]5C[C@@H](O)CC[C@]5(C)C4CC[C@]3(C)C1[C@@H]2C (some centres undefined) | > 20 µM | > 20 µM
55 | C[C@@H](NCCCCc1ccccc1)[C@@H](O)c1ccc2c(c1)CCS2 | > 20 µM | > 20 µM
56 | CC(=O)O[C@@H]1CC2(C)C(C(C)=O)CCC2C2CCC3=CC(=O)CCC3(C)C21 (some centres undefined) | > 20 µM | > 20 µM
57 | CC(=O)OC1CCC2(C)C3CC(=O)C4(C)C(C(C)=O)=CCC4C3CC[C@H]2C1 (some centres undefined) | > 20 µM | > 20 µM
58 | CC(=O)C1CCC2C3CCC4=CC(=O)CCC4(C)C3C(O)CC12C (centres undefined) | > 20 µM | > 20 µM
59 | CC12CCC(=O)C(O)=C1CCC1C2CCC2(C)C1CC[C@]2(C)O (some centres undefined) | > 20 µM | > 20 µM
60 | CC(C)[C@@]1(NC(=O)[C@@H]2C[C@@H]3c4cccc5[nH]cc(c45)C[C@H]3N(C)C2)O[C@@]2(O)[C@@H]3CCCN3C(=O)[C@H](C)N2C1=O | > 20 µM | > 20 µM
61 | C[C@@H]1NC(=O)CO[C@@H]1c1ccccc1 | > 20 µM | > 20 µM
62 | CC(=O)O[C@@H]1CCC2C3CCc4cc(O)ccc4C3CCC21C (some centres undefined) | > 20 µM | > 20 µM
63 | CC(=O)OC1CCC2C3CCC4C/C(=N\Oc5ccc([N+](=O)[O-])cc5)C(Cl)CC4(C)C3CCC12C (centres undefined) | > 20 µM | > 20 µM
64 | CCC[C@@H]1C[C@@H](C(=O)NC(C2O[C@H](SC)[C@H](OP(=O)(O)O)[C@@H](O)[C@H]2O)[C@H](C)Cl)N(C)C1 (some centres undefined) | > 20 µM | > 20 µM
65 | COc1cc(N)c(Cl)cc1C(=O)N[C@H]1CCNC[C@H]1OC | > 20 µM | > 20 µM
66 | C[C@H](CCC(=O)O)[C@H]1CC[C@H]2[C@@H]3CCC4C[C@H](O)CC[C@]4(C)[C@H]3CC[C@]12C (some centres undefined) | > 20 µM | > 20 µM
67 | CC(CCC(=O)O)C1CCC2C3C(=O)C[C@@H]4CC(=O)CC[C@]4(C)C3CC(=O)[C@]12C (some centres undefined) | > 20 µM | > 20 µM
68 | CC(CNS(=O)(=O)C(C)C)c1ccc(NC(=O)c2cc(F)cc(F)c2)cc1 (centres undefined) | > 20 µM | > 20 µM
69 | C#CCOC[C@@H]1CO[C@@](Cn2ccnc2)(c2ccc(Cl)cc2Cl)O1 | > 20 µM | > 20 µM
70 | CC1CNc2c(cccc2S(=O)(=O)N[C@@H](CCCNC(=N)N)C(=O)N2CC[C@H](C)C[C@@H]2C(=O)O)C1 (some centres undefined) | > 20 µM | > 20 µM
71 | CSCC1CN(/N=C/c2ccc([N+](=O)[O-])o2)C(=O)O1 (centres undefined) | > 20 µM | > 20 µM
72 | C[C@@H]1CC[C@@]2(NC1)O[C@H]1C[C@H]3[C@@H]4CC=C5C[C@@H](O)CC[C@]5(C)[C@H]4CC[C@]3(C)[C@H]1[C@@H]2C | > 20 µM | > 20 µM
73 | C=CCN1CCC23c4c5ccc(O)c4OC2C(O)C=CC3C1C5 (centres undefined) | > 20 µM | > 20 µM
74 | O=C1Nc2ccc(I)cc2/C1=C/c1cc(Br)c(O)c(Br)c1 | > 20 µM | > 20 µM
75 | C/C(=N\N=C(/S)N/N=C(\S)Nc1ccccc1Cl)c1ccccn1 | > 20 µM | > 20 µM
76 | C=CCNc1nc(NCC=C)nc(N2CCC(NCC(c3ccc(F)cc3)c3ccc(F)cc3)CC2)n1 | > 20 µM | > 20 µM
77 | C[C@@H]1[C@@H]2Cc3ccc(O)cc3C1(C)CCN2C | > 20 µM | > 20 µM
